Consider five compounds from article PMC12293755, “Synthesis and Cytotoxicity Evaluation of Denitroaristolochic Acids: Structural Insights and Mechanistic Implications in Nephrotoxicity” (Biomolecules, 2025).

The test system of one data set is HK2 cells. Kind of data set: CCK-8 cytotoxicity assay in HK2 cells. Format: cell-based, human. Particulars: CCK-8, 24 h compound exposure, 3 to 1000 μM. As to the method:
(§1) This study systematically investigated the cytotoxic effects and structure-activity relationships of denitroaristolochic acid analogs (DAA-II, DAA-III, DAA-IV, DAA-V) on human renal cortical proximal tubular epithelial cells (HK2) using the cell counting kit-8 (CCK-8) assay. HK2 cells were maintained in Dulbecco’s modified eagle medium (DMEM) supplemented with 10% fetal bovine serum under standard culture conditions (37 °C, 5% CO2). At 80% confluence, cells were trypsinized and seeded into 96-well plates at a density of 1 × 10^4 cells/well, followed by a 4–6 h attachment period prior to compound exposure. Stock solutions ([…]) of each DAA were prepared in DMSO and serially diluted to final concentrations ranging from 3 to 1000 μM, with DMSO concentration strictly maintained at 0.5% (v/v) in all treatment groups. Experimental controls included AA-I as positive control and 0.5% DMSO-containing medium as vehicle control. Following 24 h compound exposure, cell viability was assessed using CCK-8 reagent according to manufacturer specifications: 10 μL CCK-8 solution was added to each well, followed by 2 h incubation under light-protected conditions. Absorbance was measured at 450 nm using a microplate reader, with morphological observations conducted via inverted phase-contrast microscopy.
(§2) This study systematically evaluated the cytotoxic effects of aristolochic acids (AAs) on HK2 cells (the HK2 cell lines were from the Cell Bank of the Chinese Academy of Sciences) using the CCK-8 assay. […] This finding provides novel insights into the toxicological mechanisms of aristolochic acid analogs, and their precise mode of action warrants further elucidation through integrated toxicological approaches, including metabolomic profiling, signaling pathway screening, and molecular docking studies.
On the technique in general: Tetrazolium assays rely on reduction of a dye to a coloured formazan, in cell work by metabolically active cells.

Data set [1] can be described thus: CCK-8 cytotoxicity assay in HK2 cells. Particulars: human, CCK-8, 24 h compound exposure, 3 to 1000 μM, ND: not detected, read-out: IC50 (μM), cytotoxic effects on HK2 cells in vitro. Format: cell-based, human. As to the method:
as §1, §2

With `COc1cc2ccc3c(C(=O)O)cc4c(c3c2cc1OC)OCO4` [DAA-V, 9,10-Dimethoxyphenanthro [3,4-d][1,3]dioxole-5-carboxylic acid], the “cytotoxicity in human renal proximal tubular epithelial cells (result in words)” value in the data set with HK2 cells is “no detectable cytotoxicity”.
Consider `O=C(O)c1cc2c(c3c1ccc1ccccc13)OCO2` [DAA-II, phenanthro [3,4-d][1,3]dioxole-5-carboxylic acid], for which the “cytotoxicity in human renal proximal tubular epithelial cells (result in words)” value with HK2 cells is recorded as “no detectable cytotoxicity”.
By IC50 is commonly meant the midpoint of a concentration-inhibition curve. Take `COc1ccc2ccc3c(C(=O)O)cc4c(c3c2c1)OCO4` [DAA-III, 10-Methoxyphenanthro [3,4-d][1,3]dioxole-5-carboxylic acid]: the IC50 in data set [1] stood at 371 µM.
`COc1cc(OC)c2ccc3c(C(=O)O)cc4c(c3c2c1)OCO4` [DAA-IV, 8,10-dimethoxyphenanthro [3,4-d][1,3]dioxole-5-carboxylic acid]: the IC50 in data set [1] worked out at 515 µM.
As for `COc1cccc2c1cc([N+](=O)[O-])c1c(C(=O)O)cc3c(c12)OCO3` [AA-I, aristolochic acid I, reference compound], the IC50 at 24 h in data set [1] is 270 µM.
